Non-standard residues stand in square brackets, D forms with d. Residues, ends and D or L forms follow the SMILES beside them. ξ: configuration not given here. *: point of attachment. ξF = NC(Cc1ccccc1)C(=O)O; Cbz = O=C(OCc1ccccc1)*
These compounds were tested against T1, Solute carrier family 12 member 5 (Homo sapiens, UniProt Q9H2X9) (assay: concentration-response of KCC2 transport modulators – cell-based, HEK293 KCC2, FluoZin-2 fluorescence, dose response (AID 1736)). Details: not given.
T1 sequence (Q9H2X9 whole entry): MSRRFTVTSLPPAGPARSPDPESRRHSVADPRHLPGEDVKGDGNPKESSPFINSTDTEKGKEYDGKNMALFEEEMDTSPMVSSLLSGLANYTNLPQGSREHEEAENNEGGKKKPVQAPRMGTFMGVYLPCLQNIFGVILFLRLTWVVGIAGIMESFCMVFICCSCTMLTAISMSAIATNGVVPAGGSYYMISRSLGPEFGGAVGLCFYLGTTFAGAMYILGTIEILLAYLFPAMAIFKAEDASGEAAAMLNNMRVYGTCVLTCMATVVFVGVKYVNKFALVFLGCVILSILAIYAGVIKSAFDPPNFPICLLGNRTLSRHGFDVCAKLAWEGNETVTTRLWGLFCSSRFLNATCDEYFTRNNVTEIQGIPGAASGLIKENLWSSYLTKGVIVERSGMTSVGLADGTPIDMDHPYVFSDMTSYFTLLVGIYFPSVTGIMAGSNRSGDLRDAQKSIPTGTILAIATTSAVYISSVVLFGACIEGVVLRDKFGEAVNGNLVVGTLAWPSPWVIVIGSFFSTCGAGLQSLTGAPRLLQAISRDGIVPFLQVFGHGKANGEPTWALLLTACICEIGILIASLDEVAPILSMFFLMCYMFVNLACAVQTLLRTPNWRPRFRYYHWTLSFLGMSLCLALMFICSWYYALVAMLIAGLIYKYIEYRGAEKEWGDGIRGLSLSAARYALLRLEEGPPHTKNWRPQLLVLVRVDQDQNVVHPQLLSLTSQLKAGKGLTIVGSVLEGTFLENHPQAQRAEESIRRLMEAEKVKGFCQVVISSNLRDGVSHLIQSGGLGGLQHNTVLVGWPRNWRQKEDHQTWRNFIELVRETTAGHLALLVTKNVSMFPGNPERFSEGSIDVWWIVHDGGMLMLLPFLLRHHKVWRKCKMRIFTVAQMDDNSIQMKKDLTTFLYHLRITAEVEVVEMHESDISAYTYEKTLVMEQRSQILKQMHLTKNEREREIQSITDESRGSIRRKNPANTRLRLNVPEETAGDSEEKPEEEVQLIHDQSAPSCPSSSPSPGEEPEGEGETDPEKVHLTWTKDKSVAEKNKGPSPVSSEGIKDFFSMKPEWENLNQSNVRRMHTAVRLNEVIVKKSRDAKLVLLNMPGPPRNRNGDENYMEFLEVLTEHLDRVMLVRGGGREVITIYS

SMILES | EC50
NC(=O)COc1ccccc1/C=C1/SC(=O)N(CC(=O)N2CCc3ccccc3C2)C1=O [2-[2-({3-[2-(3,4-dihydro-2(1H)-isoquinolinyl)-2-oxoethyl]-2,4-dioxo-1,3-thiazolidin-5-ylidene}methyl)phenoxy]acetamide] | 16.5 µM
CC(C)NC(=S)NNC1=c2cc(C(C)C)ccc2=NC1=O [SMR000242097] | 145 µM
Cc1ccccc1OCC(=O)NNC(=O)CCN1C(=O)c2ccccc2C1=O [3-(1,3-dioxo-2-isoindolyl)-N'-[2-(2-methylphenoxy)-1-oxoethyl]propanehydrazide] | 14.8 µM
Cc1cccc(OCCc2nnc(N)s2)c1C [5-[2-(2,3-Dimethyl-phenoxy)-ethyl]-[1,3,4]thiadiazol-2-ylamine] | 52.3 µM
Cc1nn(-c2ccc(F)cc2)c(C)c1NS(=O)(=O)c1ccc(Cl)cc1 [4-chloranyl-N-[1-(4-fluorophenyl)-3,5-dimethyl-pyrazol-4-yl]benzenesulfonamide] | 112 µM
CC(C)(C)NC(=O)C(c1ccncc1)N(Cc1ccco1)C(=O)c1ccc(-c2ccccc2)[nH]1 (stereo unspecified) [N-[2-(tert-butylamino)-2-oxo-1-pyridin-4-ylethyl]-N-(furan-2-ylmethyl)-5-phenyl-1H-pyrrole-2-carboxamide] | 26.6 µM
COc1cc(C=NN(C)c2ccccc2)ccc1O | 10100 µM
C=CCNc1oc(Cc2cccc3ccccc23)nc1C#N [2-(1-naphthalenylmethyl)-5-(prop-2-enylamino)-4-oxazolecarbonitrile] | 12.1 µM
COc1ccc(-c2cc(CNC(=O)CN(C)Cc3ccccc3)on2)cc1 [2-[benzyl(methyl)amino]-N-[[3-(4-methoxyphenyl)-1,2-oxazol-5-yl]methyl]acetamide] | 15 µM
Cn1nccc1C(=O)OCC(=O)Nc1nc(-c2ccccc2)cs1 [2-Methyl-2H-pyrazole-3-carboxylic acid (4-phenyl-thiazol-2-ylcarbamoyl)-methyl ester] | 10.9 µM
O=C(NN=Cc1ccc(Cl)s1)C1COc2ccccc2O1 (stereo unspecified) [2,3-Dihydro-benzo[1,4]dioxine-2-carboxylic acid [1-(5-chloro-thiophen-2-yl)-meth-(Z)-ylidene]-hydrazide] | 32.7 µM

More lines, now with the values ahead:

EC50 | SMILES
9.28 µM | O=C(Nc1ccc(Cc2ccncc2)cc1)c1cccc([N+](=O)[O-])c1 [3-Nitro-N-(4-pyridin-4-ylmethyl-phenyl)-benzamide]
9.12 µM | O=C(CSc1nccc(=O)[nH]1)N1CCc2ccccc2C1 [SMR000124078]
9 µM | O=C(c1ccccc1SCc1ccc(F)cc1)N1CCOCC1 [MLS000712999]
8.13 µM | CC(=O)NCCC(=O)N1CCCC(CNC(=O)c2ccc(-c3ccccc3)cc2)C1 (stereo unspecified) [MLS000733794]
8.12 µM | O=C(Cn1cnc2c(nnn2Cc2ccc(F)cc2)c1=O)N1CCN(c2ccccc2)CC1 [3-(4-fluorobenzyl)-6-[2-keto-2-(4-phenylpiperazino)ethyl]triazolo[4,5-d]pyrimidin-7-one]
7.64 µM | O=C(NCc1nc(-c2ccccc2)cs1)c1ccccc1 [MLS000661971]
7.52 µM | O=C(c1ccc(-c2ccccc2)cc1)C1CCCN(Cc2ccncc2)C1 (stereo unspecified) [(4-phenylphenyl)-[1-(4-pyridylmethyl)-3-piperidyl]methanone]
7.34 µM | O=C(NCCc1csc(-c2ccccc2)n1)c1cccs1 [MLS000102716]
5.03 µM | CCOC(=O)CNC(=O)C(Cc1ccccc1)NC(=O)OCc1ccccc1 (stereo unspecified) [2-[[1-oxo-3-phenyl-2-(phenylmethoxycarbonylamino)propyl]amino]acetic acid ethyl ester] (Cbz-[ξF]-Gly-OEt)
4.59 µM | N#Cc1nc(-c2ccco2)oc1N1CCN(Cc2ccccc2)CC1 [2-(2-furanyl)-5-[4-(phenylmethyl)-1-piperazinyl]-4-oxazolecarbonitrile]
3.8 µM | COc1ccc(S(=O)(=O)N(CCc2ccccc2)CC(=O)O)cc1Cl [2-[(3-chloranyl-4-methoxy-phenyl)sulfonyl-(2-phenylethyl)amino]ethanoic acid]
3.79 µM | O=C(CSc1nnc(-c2c[nH]c3ccccc23)o1)N1CCCCC1 [SMR000003748]
3.72 µM | Cn1cc(C(=O)C(=O)N2CCCc3ccccc32)c2ccccc21 [1-(3,4-dihydro-2H-quinolin-1-yl)-2-(1-methyl-3-indolyl)ethane-1,2-dione]
3.61 µM | O=C(c1ccc(S(=O)(=O)c2cccc(Cl)c2)c([N+](=O)[O-])c1)N1CCN(c2ccccn2)CC1 [1-{4-[(3-chlorophenyl)sulfonyl]-3-nitrobenzoyl}-4-pyridin-2-ylpiperazine]
2.5 µM | Sc1nnc(Nc2ccccc2)s1 [5-anilino-3H-1,3,4-thiadiazole-2-thione]
2.43 µM | O=C(CN(c1ccc2c(c1)OCCO2)S(=O)(=O)c1ccccc1)N1CCN(Cc2ccccc2)CC1 [MLS000693333]
1.8 µM | Cc1ccc(-c2n[nH]c(=S)n2NC=CCc2ccccc2[N+](=O)[O-])cc1
1.69 µM | CC(=O)NCC1CCCN(c2nc3nonc3nc2N(C)Cc2ccccc2)C1 (stereo unspecified) [MLS000731683]
1.33 µM | O=C(Cn1nc(-c2ccccc2)ccc1=O)NCc1ccc2c(c1)OCO2 [2-(6-keto-3-phenyl-pyridazin-1-yl)-N-piperonyl-acetamide]
1.2 µM | O=C(CNC(=O)/C(=C\c1ccc(Br)cc1)NC(=O)c1ccccc1)OCc1ccccc1 [(phenylmethyl) 2-[[(E)-2-benzamido-3-(4-bromophenyl)prop-2-enoyl]amino]ethanoate]
0.678 µM | O=C(CNC(=O)/C(=C/c1ccccc1)NC(=O)c1ccc(Br)cc1)OCc1ccccc1 [(phenylmethyl) 2-[[(Z)-2-[(4-bromophenyl)carbonylamino]-3-phenyl-prop-2-enoyl]amino]ethanoate]
0.618 µM | NC(=S)NN=C1C(=O)N(Cc2ccccc2)c2ccccc21 [1-[(Z)-[2-oxidanylidene-1-(phenylmethyl)indol-3-ylidene]amino]thiourea]
0.556 µM | O=C(c1ccc(N2CCCCCC2)c([N+](=O)[O-])c1)N1CCc2ccccc21 [1-(4-azepan-1-yl-3-nitrobenzoyl)indoline]
0.363 µM | COc1ccccc1NC(=S)NNC1=c2cc(Br)ccc2=NC1=O [MLS000778253]
0.361 µM | CC1Cc2ccccc2N1C(=O)c1ccc(N2CCCC2)c([N+](=O)[O-])c1 (stereo unspecified) [(2-methyl-2,3-dihydroindol-1-yl)-(3-nitro-4-pyrrolidin-1-yl-phenyl)methanone]
0.291 µM | Cc1onc(-c2ccccc2Cl)c1C(=O)NC(=S)Nc1ccc(C(C)C)cc1 [3-(2-chlorophenyl)-5-methyl-N-(p-cumenylthiocarbamoyl)isoxazole-4-carboxamide]
0.0676 µM | CN(C)S(=O)(=O)c1cccc(NC(=O)c2cc3c(cc2Cl)N2CCCCC=C2NS3(=O)=O)c1 [2-chloranyl-N-[3-(dimethylsulfamoyl)phenyl]-5,5-bis(oxidanylidene)-8,9,10,11-tetrahydro-7H-azepino[2,1-c][1,2,4]benzothiadiazine-3-carboxamide]

Same assay, conditions: inactive by the depositor's call

EC50 | SMILES
20.6 µM | CC(C)c1onc(C(=O)NCCc2ccccc2)c1[N+](=O)[O-] [4-nitro-N-(2-phenylethyl)-5-propan-2-yl-1,2-oxazole-3-carboxamide]
4610 µM | O=c1cc(CSc2nnnn2-c2ccccc2)nc2scc(-c3ccccc3)n12 [3-phenyl-7-[(1-phenyl-1,2,3,4-tetrazol-5-yl)sulfanylmethyl]-[1,3]thiazolo[3,2-a]pyrimidin-5-one]
9.15 µM | N#C/C(=C\c1ccc(-c2cccc([N+](=O)[O-])c2)o1)C(=O)Nc1nc(-c2cccs2)cs1 [MLS000402444]
101 µM | O=C(Nc1ccc(Cc2ccncc2)cc1)c1ccc(N2CCOCC2)c([N+](=O)[O-])c1 [4-(4-morpholinyl)-3-nitro-N-[4-(4-pyridinylmethyl)phenyl]benzamide]
49 µM | O=C(Cn1cnc2c(nnn2Cc2ccc(F)cc2)c1=O)NCc1ccco1 [2-[3-(4-fluorobenzyl)-7-keto-triazolo[4,5-d]pyrimidin-6-yl]-N-(2-furfuryl)acetamide]
219 µM | COc1ccc(/C=C2\CCc3ccccc3C2=O)cc1CN1CCOCC1 [(2E)-2-[4-methoxy-3-(morpholinomethyl)benzylidene]tetralin-1-one]
9.22 µM | CCCCC(c1nnnn1Cc1ccco1)N1CCN(c2nc3ccccc3s2)CC1 (stereo unspecified) [2-[4-[1-[1-(2-furanylmethyl)-5-tetrazolyl]pentyl]-1-piperazinyl]-1,3-benzothiazole]
260 µM | Cc1cccc(N2CCN(C(=O)Cn3ccc4ccccc4c3=O)CC2)c1C [2-[2-[4-(2,3-dimethylphenyl)-1-piperazinyl]-2-oxoethyl]-1-isoquinolinone]

Source: BindingDB's records for doi:10.7270/Q2Q52N1X (Vanderbilt Screening Center for GPCRs, Ion Channels and …, 2009)
